In publication PMC11106745 (ACS Chemical Biology, 2024):
“And” between values parts separate entries of the source, which are not always exact repeats. Identical values can stand only once. Like-named read-outs stand apart in the source and are kept apart here.

Columns and labels:
SARS-CoV-2 Mac1 [1] = molecular target: T1, SARS-CoV-2 Mac1 (Severe acute respiratory syndrome coronavirus 2, UniProt P0DTD1); assay: biochemical; format: binding
CHIKV Mac [2] = molecular target: T2, CHIKV Mac (Chikungunya virus, UniProt Q8JUX6); assay: biochemical; format: binding; conditions: for koff: read-out: kdis
VEEV Mac [3] = molecular target: T3, VEEV Mac (Venezuelan equine encephalitis virus, UniProt P27282); assay: biochemical; format: binding; conditions: for koff: read-out: kdis
MERS-CoV Mac1 [4] = molecular target: T4, MERS-CoV Mac1 (Middle East respiratory syndrome-related coronavirus, UniProt K9N7C7); assay: biochemical; format: binding; conditions: for koff: read-out: kdis
MERS-CoV Mac1 [5] = molecular target: T4, MERS-CoV Mac1; assay: biochemical; format: binding
SARS-CoV-2 Mac1 [6] = molecular target: T1, SARS-CoV-2 Mac1; assay: biochemical; format: binding; conditions: for koff: read-out: kdis
CHIKV Mac [7] = molecular target: T2, CHIKV Mac; assay: biochemical; format: binding
SARS-CoV-2 Mac1 [8] = molecular target: T1, SARS-CoV-2 Mac1; conditions: cited from earlier work
SARS-CoV-2 Mac1 [9] = molecular target: T1, SARS-CoV-2 Mac1; conditions: cited from earlier work; remark: listed apart in the source
VEEV Mac [10] = molecular target: T3, VEEV Mac; assay: biochemical; format: binding

T3 sequence (P27282 1330-1489 limits assumed): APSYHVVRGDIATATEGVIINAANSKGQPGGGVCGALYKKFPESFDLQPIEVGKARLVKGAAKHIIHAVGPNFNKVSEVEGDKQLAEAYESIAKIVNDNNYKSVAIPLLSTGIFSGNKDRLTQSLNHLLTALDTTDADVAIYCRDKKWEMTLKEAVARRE
T4 sequence (K9N7C7 1110-1276 limits assumed): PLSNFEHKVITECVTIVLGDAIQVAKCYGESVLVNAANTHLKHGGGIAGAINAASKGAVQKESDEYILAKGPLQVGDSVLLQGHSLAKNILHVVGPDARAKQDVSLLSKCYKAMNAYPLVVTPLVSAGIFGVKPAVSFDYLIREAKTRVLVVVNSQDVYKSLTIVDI
T2 sequence (Q8JUX6 1334-1493 limits assumed): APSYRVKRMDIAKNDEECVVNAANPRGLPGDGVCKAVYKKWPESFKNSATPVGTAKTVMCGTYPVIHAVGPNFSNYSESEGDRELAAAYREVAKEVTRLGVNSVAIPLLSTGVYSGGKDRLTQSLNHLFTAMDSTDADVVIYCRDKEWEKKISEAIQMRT

Compound	IC50 (SARS-CoV-2 Mac1 [1])	kon (CHIKV Mac [2]) [M⁻¹ s⁻¹]	Kd (CHIKV Mac [2])	koff (CHIKV Mac [2]) [s⁻¹]	kon (VEEV Mac [3]) [M⁻¹ s⁻¹]	koff (VEEV Mac [3]) [s⁻¹]	kon (MERS-CoV Mac1 [4]) [M⁻¹ s⁻¹]	Kd (MERS-CoV Mac1 [4]) [nM]	koff (MERS-CoV Mac1 [4]) [s⁻¹]	IC50 (MERS-CoV Mac1 [5]) [nM]	Kd (SARS-CoV-2 Mac1 [6]) [nM]	kon (SARS-CoV-2 Mac1 [6]) [M⁻¹ s⁻¹]	koff (SARS-CoV-2 Mac1 [6]) [s⁻¹]	IC50 (CHIKV Mac [7]) [nM]	also measured
Nc1ncnc2c1ncn2[C@@H]1O[C@H](COP(=O)(O)OP(=O)(O)OC[C@H]2O[C@H](Oc3ccc(Cn4cc(COCCOCCOCCOCCNC(=O)CCCC[C@@H]5SC[C@@H]6NC(=O)N[C@@H]65)nn4)cc3)[C@H](O)[C@@H]2O)[C@@H](O)[C@H]1O [biotin-Ph-ADPr]	130 nM	19000 ± 500	6200 ± 200 nM	0.12 ± 0.002	520000 ± 6000	0.083 ± 0.0008	1.1e+06 ± 30000	100 ± 4	0.11 ± 0.003	310	420 ± 10	270000 ± 5000	0.11 ± 0.002	> 10000	fold decrease in Kd compared to biotin-ADPr (VEEV Mac [3]): 30 fold; fold decrease in Kd compared to biotin-ADPr (MERS-CoV Mac1 [4]): 20 fold; fold more potent than biotin-ADPr based on Kd (SARS-CoV-2 Mac1 [6]): ~50 fold
Nc1ncnc2c1ncn2C1OC(COP(=O)(O)OP(=O)(O)OCC2OC(Oc3ccc4c(C(F)(F)F)cc(=O)oc4c3)C(O)C2O)C(O)C1O (stereo not drawn) [TFMU-ADPr]	–	–	–	–	–	–	–	–	–	–	–	–	–	–	IC50 (SARS-CoV-2 Mac1 [8]): 590 nM; fold more potent than ADPr (SARS-CoV-2 Mac1 [8]): > 20 fold
Nc1ncnc2c1ncn2[C@@H]1O[C@H](COP(=O)(O)OP(=O)(O)OC[C@H]2O[C@H](n3cc(COCCOCCOCCOCCNC(=O)CCCC[C@@H]4SC[C@@H]5NC(=O)N[C@@H]54)nn3)[C@H](O)[C@@H]2O)[C@@H](O)[C@H]1O [biotin-ADPr]	3500 nM	120000 ± 3000	5300 ± 200 nM	0.65 ± 0.02	140000 ± 8000	0.79 ± 0.04	320000 ± 10000	2100 ± 100	0.7 ± 0.03	6800	19600	53000 ± 3000	1 ± 0.05	22200	–
N#C[C@@]1(c2ccc3c(N)ncnn23)O[C@H](COP(=O)(O)OP(=O)(O)OC[C@H]2O[C@H](n3cc(COCCOCCOCCOCCNC(=O)CCCC[C@@H]4SC[C@@H]5NC(=O)N[C@@H]54)nn3)[C@H](O)[C@@H]2O)[C@@H](O)[C@H]1O [biotin-NDPr]	57 nM	180000 ± 4000	331 nM and 330 nM	0.06 ± 0.0009	580000 ± 6000	0.076 ± 0.0008	1.3e+06 ± 50000	210 ± 10	0.27 ± 0.01	1200	280 ± 10	310000 ± 5000	0.085 ± 0.001	950	fold stronger than biotin-ADPr (CHIKV Mac [2]): ~15 fold; fold more potent than biotin-ADPr based on Kd (SARS-CoV-2 Mac1 [6]): ~70 fold
O=C(O)[C@H](Cc1c[nH]c2ccccc12)Nc1ncnc2[nH]ccc12 [compound 15c]	–	–	–	–	–	–	–	–	–	–	–	–	–	–	IC50 (SARS-CoV-2 Mac1 [9]): 6100 nM
N#C[C@@]1(c2ccc3c(N)ncnn23)O[C@H](COP(=O)(O)OP(=O)(O)OC[C@H]2O[C@H](Oc3ccccc3)[C@H](O)[C@@H]2O)[C@@H](O)[C@H]1O [Ph-NDPr]	–	–	–	–	–	–	–	–	–	460	–	–	–	9300	IC50 (VEEV Mac [10]): 220 nM; fold better IC50 than ADPr (SARS-CoV-2 Mac1 [1]): 6000 fold; fold better IC50 than NDPr (SARS-CoV-2 Mac1 [1]): 100 fold; fold better IC50 than Ph-ADPr (SARS-CoV-2 Mac1 [1]): 500 fold
Nc1ncnc2c1ncn2[C@@H]1O[C@H](COP(=O)(O)OP(=O)(O)OC[C@H]2O[C@H](Oc3ccccc3)[C@H](O)[C@@H]2O)[C@@H](O)[C@H]1O [Ph-ADPr]	1900 nM and 730 nM and 1500 nM	–	–	–	–	–	–	–	–	1800	–	–	–	126000	IC50 (VEEV Mac [10]): 7300 nM
